Measurements taken from patent US4794188A, “Certain unsymmetrical quinolinyl ethers having anti-inflammatory and anti-allergic activity” (USV Pharmaceutical Corporation, priority 1985, dated 1988).

biological target: T1, 5-LOX (Homo sapiens, UniProt P09917); assay: 5-LOX inhibition (5-LOX I50, Table I); assay type: biochemical
T1 sequence (P09917 1-674): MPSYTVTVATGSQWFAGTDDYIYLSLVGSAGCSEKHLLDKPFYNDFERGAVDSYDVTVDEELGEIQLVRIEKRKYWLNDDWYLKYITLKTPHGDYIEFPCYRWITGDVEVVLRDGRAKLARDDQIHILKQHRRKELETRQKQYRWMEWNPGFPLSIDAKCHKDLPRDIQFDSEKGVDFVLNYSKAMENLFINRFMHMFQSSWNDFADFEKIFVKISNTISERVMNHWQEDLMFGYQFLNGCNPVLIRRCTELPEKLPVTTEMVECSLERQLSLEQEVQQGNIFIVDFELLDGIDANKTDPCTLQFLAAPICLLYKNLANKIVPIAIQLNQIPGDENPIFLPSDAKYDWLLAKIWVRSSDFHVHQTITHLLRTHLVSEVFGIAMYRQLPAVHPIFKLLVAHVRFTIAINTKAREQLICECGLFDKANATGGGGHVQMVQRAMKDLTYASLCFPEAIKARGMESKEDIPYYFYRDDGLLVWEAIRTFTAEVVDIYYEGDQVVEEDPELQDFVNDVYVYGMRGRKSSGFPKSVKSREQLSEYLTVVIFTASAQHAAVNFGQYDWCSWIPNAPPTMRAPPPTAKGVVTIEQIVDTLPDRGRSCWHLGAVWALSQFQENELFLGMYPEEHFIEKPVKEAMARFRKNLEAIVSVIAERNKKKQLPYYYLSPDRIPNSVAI

How did the IC50 turn out when `CCCCCC(O)c1cccc(OCc2cccc(C#N)n2)c1` (stereo not shown) was run?
Its IC50 is 30 µM.

`CCCCCC(O)c1ccc(OCc2ccc3ccccc3n2)cc1` (stereo not shown) was tested. Which IC50 did it give?
Its IC50 is 0.35 µM.

For `CCCCCC(O)c1ccc(Oc2ccc3ccccc3n2)cc1` (stereo not shown), which IC50 is on record?
The IC50 was 0.35 µM.

`CCCCCC(O)c1cccc(OCc2ccccn2)c1` (stereo not shown) was tested. Which IC50 did it give?
Its IC50 is 0.5 µM.

Which IC50 does the source give for `CC(O)(CCCCCOc1ccccc1)c1cccc(OCc2ccc3ccccc3n2)c1` (stereo not shown) here?
The IC50 was 0.8 µM.

For `CCCCC(C)C(O)c1cccc(OCc2ccc3ccccc3n2)c1` (stereo not shown), which IC50 is on record?
The IC50 was 0.2 µM.

How did the IC50 turn out when `CCCCCC(=O)c1cccc(OCc2ccc3ccccc3n2)c1` was run?
Its IC50 is 0.15 µM.

`CCCCCC(O)c1cccc(OCc2ccncc2)c1` (stereo not shown) was tested. Which IC50 did it give?
Its IC50 is 3 µM.

Which IC50 does the source give for `CCCCC=Cc1cccc(OCc2ccc3ccccc3n2)c1` [3-(CHCHC4 H9), 2-[3-(1-Hexenyl)phenoxymethyl]quinoline] here?
Its IC50 is 2.4 µM.

How did the IC50 turn out when `CCCCCC(C)(O)c1cccc(OCc2ccc3ccccc3n2)c1` (stereo not shown) was run?
The IC50 was 0.1 µM.

How did the IC50 turn out when `CCCCC(C)(C)C(C)(O)c1cccc(OCc2ccc3ccccc3n2)c1` (stereo not shown) was run?
The IC50 was 0.27 µM.

`OC(CCCCCOc1cccc(Cl)c1)c1cccc(OCc2ccc3ccccc3n2)c1` (stereo not shown) was tested. Which IC50 did it give?
Its IC50 is 0.6 µM.

With `CCCCCC(O)c1cccc(OCc2cccnc2)c1` (stereo not shown) as the compound, how does the IC50 read?
Its IC50 is 3 µM.

For `CCCCCC(C)(O)c1cccc(OCc2ccccn2)c1` (stereo not shown), which IC50 is on record?
The IC50 was 0.3 µM.

For `CC(=O)CC(O)c1cccc(OCc2ccc3ccccc3n2)c1` (stereo not shown), which IC50 is on record?
Its IC50 is 0.18 µM.

`OC(CCCCCOc1ccccc1)c1cccc(OCc2ccc3ccccc3n2)c1` (stereo not shown) was tested. Which IC50 did it give?
The IC50 was 0.6 µM.

`CCCCCC(NC)c1cccc(OCc2ccccn2)c1` (stereo not shown) was tested. Which IC50 did it give?
The IC50 was 2.2 µM.

With `CCCCC(C)(C)C(O)c1cccc(OCc2ccc3ccccc3n2)c1` (stereo not shown) as the compound, how does the IC50 read?
The IC50 was 0.27 µM.

How did the IC50 turn out when `CCCCCC(O)c1cccc(OCc2cccc(C(=O)O)n2)c1` (stereo not shown) was run?
Its IC50 is 1.9 µM.
